Results published in patent US20040219622A1, “Phosphine-containing formulations for chemiluminescent luciferase assays” (priority 2001, published 2004).

Columns and labels:
Assay type in all cases: biochemical
firefly luciferase [1] = target: T1, firefly luciferase (Photinus pyralis, UniProt P08659); test: Firefly luciferase reaction with additives TCEP, CoA, DTT alone or combined (Example 3); settings: CoA 0.5 mM, DTT 5 mM, light output then rapidly decreased
Experimental: A common firefly luciferase reaction mix was prepared by combining stock solutions of Tris/Mg buffer, D-luciferin, and ATP. A 600 μl aliquot of this mix consisted of 480 μl of 0.1 M Tris, 10 mM MgCl2, pH 8.0, 85 μl of 10 mM D-luciferin in 0.1 M Tris, pH 8.0, and 17 μl of 50 mM ATP (1889485) in 0.1 M Tris, pH 8.0. Separate aliquots of the reaction mixture were then supplemented with various combinations of additives selected from a 0.5 M TCEP solution, a stock solution of CoA (5 mM CoA in 0.1 M Tris, pH 8.0), or a stock solution of DTT (50 mM DTT in 0.1 M Tris, pH 8.0) and then brought to a final volume of 1 ml with 0.1 M Tris, pH 8.0. In such fashion, the following solutions were obtained: a solution with no additives (None), TCEP (T), TCEP plus CoA (TC), TCEP plus DTT (TD), TCEP plus CoA plus DTT (TCD), CoA (C), CoA plus DTT (CD), and DTT (D or DTT). Where used, the final concentrations of TCEP, CoA, and DTT were 50, 0.5, and 5 mM, respectively. […]
Firefly luciferase was diluted from a stock solution (2 μl of 14.7 mg/ml) with 0.1 M Tris, pH 8.0, containing 2 mg/ml bovine serum albumin. […] The plate was immediately placed into an Orion Luminometer, and light output from the plate wells was measured with sequential plate reading cycles over a one hour time frame, each cycle allowing the wells of the plate to be read with a time interval of approximately 140 seconds.

firefly luciferase [2] = target: T1, firefly luciferase; test: ATP assay with TCEP in firefly luciferin-luciferase reaction (Example 4); settings: 5 mM DTT; 33.3 mM TCEP; 0-500 μM ATP
Experimental: A common solution was prepared by combining stock solutions of Tris/Mg buffer, D-luciferin, and TCEP. A 2.25 ml aliquot of this solution contained 1.2 ml of 0.1 M Tris, 10 mM MgCl2, pH 8.0, 18.75 μl of 10 mM D-luciferin in 0.1 M Tris, pH 8.0, 165 μl of 0.5 M TCEP, with the remaining volume being 0.1 M Tris, pH 8.0. 0.5 ml of this mixture was removed and to it was added 11 μl of an ATP stock solution (50 mM ATP in 0.1 M Tris, pH 8.0) and 39 μl of 0.1 M Tris, pH 8.0; the remaining 1.75 ml of mixture received 175 μl of 0.1 M Tris, pH 8.0. The ATP-containing aliquot was then serially diluted with the non-ATP-containing mixture to yield a final ATP concentration series of 500, 250, 125, 62.5, 31.25, 15.625, and 0 μM. The non-ATP-containing mixture served as the control for zero ATP concentration. In this series of reaction mixtures with varying concentrations of ATP, the final luciferin, magnesium, and TCEP concentrations were 75.8 μM luciferin, 4.8 mM magnesium, and 33.3 mM TCEP. […]
Firefly luciferase was diluted from a stock solution (2 μl of 14.7 mg/ml) with 0.1 M Tris, pH 8.0 containing 2 mg/ml bovine serum albumin. […] The plate was immediately placed into an Orion Luminometer and light output from the wells was measured with sequential plate reading cycles, each cycle allowing the wells of the plate to be read with a time interval of approximately 2.25 minutes. […]

firefly luciferase [3] = target: T1, firefly luciferase; test: TCEP-mediated firefly luciferase reaction with DTT series (Example 5); settings: 33.5 mM TCEP; for signal decrease from first reading cycle to 11 minutes 34 seconds later: no added DTT
Experimental: A common solution was prepared by combining stock solutions of Tris/Mg buffer, D-luciferin, TCEP, and ATP. This solution was prepared by combining 12 ml of 0.1 M Tris, 10 mM MgCl2, pH 8.0, 187.5 μl of 10 mM D-luciferin in 0.1 M Tris, pH 8.0, […] 0.5 M TCEP, and 30 μl of an ATP stock solution (50 mM ATP in 0.1 M Tris, pH 8.0) and 1.02 ml of 0.1 M Tris, pH 8.0. A 150 μl aliquot of this solution was added to 100 μl of 50 mM DTT stock solution (50 mM DTT in 0.1 M Tris, pH 8.0) for a final DTT concentration of 20 mM, and another 1.35 ml aliquot of the solution received 0.9 ml 0.1 M Tris, pH 8.0. The 20 mM DTT reaction solution was further diluted with the second aliquot to give a final DTT concentration series of […], and 0 mM DTT. In this series of reaction mixtures with varying concentrations of DTT, the final luciferin, magnesium, and TCEP concentrations were 75.5 μM luciferin, 4.8 mM magnesium, and 33.5 mM TCEP and 238 μM ATP. Other reaction mixtures with varying DTT concentrations were also prepared in like fashion, but with a final ATP concentration held constant at either 59.5, 29.75 or 14.875 μM, which was achieved by further dilution of the ATP solution with 0.1 M Tris, pH 8.
Firefly luciferase was diluted from a stock solution (2 μl of 14.7 mg/ml) with 0.1 M Tris, pH 8.0, containing 2 mg/ml bovine serum albumin. 10 μl aliquots containing 181 pg of enzyme were aliquoted into the wells of an opaque white 96-well microplate, after which 100 μl of the reaction mixtures with varying DTT concentrations were added. The plate was immediately placed into an Orion Luminometer, and light output from the wells was measured with sequential plate reading cycles, each cycle allowing the wells of the plate to be read with a time interval of approximately 2.25 minutes.
FIGS. 10 and 11 illustrate the results of this experiment. FIG. 10 illustrates the results obtained where the final ATP concentration of the reaction mixture was 238 μM, and FIG. 11 illustrates the results obtained where the final ATP concentration of the reaction mixture was 30 μM. Both graphs relate the observed RLU at each reading cycle expressed as a relative percentage of the signal obtained with the well receiving no DTT supplementation at the first reading cycle, with this signal being assigned 100%.

firefly luciferase [4] = target: T1, firefly luciferase; test: Firefly luciferase reaction with TCEP concentration series (Example 1); settings: for light output as % of the original signal: 96 mM TCEP
Experimental: A common firefly luciferase reaction mix was prepared by combining stock solutions of Tris/Mg buffer, D-luciferin, and ATP. A 900 μl aliquot of this mix consisted of 720 μl of 0.1 M Tris, 10 mM MgCl2, pH 8.0, 150 μl of 10 mM D-luciferin in 0.1 M Tris, pH 8.0, and 30 μl of 50 mM ATP in 0.1 M Tris, pH 8.0. A series of buffered TCEP preparations were prepared from a neutral pH, 0.5 M TCEP solution (Pierce Chemical Company Product No. 77720) by dilutions with 0.1 M Tris, pH 8.0, as necessary for a TCEP concentration series of 300, 150, 75, 37.5, 18.75, 9.38, 4.69, and 0 mM TCEP. 450 μl of each TCEP concentration were then added separately to 900 μl aliquots of the previously prepared mixture, followed by a final addition of 50 μl of 0.1 M Tris, pH 8.0, to each solution for a final volume of 1.4 ml. The final TCEP concentrations were, therefore, approximately 96, 48, 24, 12, 6, 3, 1.5, and 0 mM and the final Mg, luciferin, and ATP concentrations were 5.14, 1.07, and 1.07 mM, respectively.
Firefly luciferase was diluted from a stock solution (2 μl of 14.7 mg/ml) with 0.1 M Tris, pH 8.0, containing 2 mg/ml bovine serum albumin. 10 μl aliquots containing 181 pg of enzyme were aliquoted into the wells of an opaque white 96-well microplate, after which 125 μl of the reaction mixtures with varying TCEP concentrations were added. The plate was immediately placed into an Orion Luminometer (Berthold Detection Systems), and light output from the plate wells was measured for 15 sequential plate reading cycles, each cycle allowing the wells of the plate to be read with a time interval of approximately 2 minutes.

firefly luciferase [5] = target: T1, firefly luciferase; test: Firefly luciferase reaction with TCEP series plus 5 mM DTT (Example 2)
Experimental: In this experiment, final TCEP concentration was varied from 0-96 mM in the reaction mixture, with the reaction mixture also containing a final concentration of DTT of 5 mM. The conditions for this experiment were identical to that shown in Example 1, but with substitution of the final addition of 50 μl of 0.1 M Tris, pH 8.0, to each solution with a final addition of 50 μl of 50 mM DTT stock solution prepared in 0.1 M Tris, pH 8.0. This experiment was also conducted simultaneously and in the same microwell plate as the experiment of Example 1.

Renilla luciferase = target: T2, Renilla luciferase (Renilla reniformis, UniProt P27652); test: Renilla luciferase assay with or without TCEP (Example 6); settings: 33.3 μl of 0.5 M TCEP added to 466.7 μl coelenterazine assay mixture
T2 construct: purchased Chemicon 4400
T2 sequence (P27652 1-311): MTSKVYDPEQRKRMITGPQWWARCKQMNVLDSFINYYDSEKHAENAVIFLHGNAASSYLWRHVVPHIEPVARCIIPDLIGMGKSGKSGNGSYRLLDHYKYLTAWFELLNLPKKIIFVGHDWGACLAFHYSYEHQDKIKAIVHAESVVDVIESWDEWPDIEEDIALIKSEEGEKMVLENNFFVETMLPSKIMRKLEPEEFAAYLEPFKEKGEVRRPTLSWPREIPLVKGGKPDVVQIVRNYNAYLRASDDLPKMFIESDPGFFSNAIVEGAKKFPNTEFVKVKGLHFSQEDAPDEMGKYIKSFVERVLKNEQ
Experimental: In order to ascertain whether or not TCEP would interfere with a Renilla assay, an experiment was conducted utilizing a Renilla assay mixture, with or without TCEP supplementation. A Renilla assay mixture was prepared by combining 480 μl of 0.1 M Tris, 10 mM MgCl2, 1 mM EDTA, pH 8.0, with 437.7 μl of 0.1 M Tris, pH 8.0, and 16.7 μl of a coelenterazine stock solution (59 μM coelenterazine in denatured ethanol prepared from Molecular Probes Catalog number C-6777). This solution was split into 2 aliquots of 466.7 μl, and one aliquot received 33.3 μl of 0.5 M TCEP and the other aliquot received 33.3 μl 0.1 M Tris, pH 8.0.
Renilla luciferase purchased from Chemicon (Catalog number 4400) was diluted with 1 ml phosphate-buffered saline (10 mM sodium phosphate, 150 mM NaCl, pH 7.2) and stored frozen at −80° C. in 10 μl aliquots, each aliquot containing 100 ng enzyme. An aliquot was removed and diluted with 0.1 M Tris, pH 8.0, for a concentration series of 166, 55, 18.5, and 0 pg/10 μl. 10 μl of each enzyme concentration were pipetted in duplicate to the wells of a white opaque 96-well microplate, and 100 μl of either of the TCEP containing solution or the solution without TCEP was pipetted into the wells to initiate the reaction. The plate was immediately placed into an Orion Luminometer, and light output from the wells was measured with sequential plate reading cycles.

T1 sequence (P08659 whole entry): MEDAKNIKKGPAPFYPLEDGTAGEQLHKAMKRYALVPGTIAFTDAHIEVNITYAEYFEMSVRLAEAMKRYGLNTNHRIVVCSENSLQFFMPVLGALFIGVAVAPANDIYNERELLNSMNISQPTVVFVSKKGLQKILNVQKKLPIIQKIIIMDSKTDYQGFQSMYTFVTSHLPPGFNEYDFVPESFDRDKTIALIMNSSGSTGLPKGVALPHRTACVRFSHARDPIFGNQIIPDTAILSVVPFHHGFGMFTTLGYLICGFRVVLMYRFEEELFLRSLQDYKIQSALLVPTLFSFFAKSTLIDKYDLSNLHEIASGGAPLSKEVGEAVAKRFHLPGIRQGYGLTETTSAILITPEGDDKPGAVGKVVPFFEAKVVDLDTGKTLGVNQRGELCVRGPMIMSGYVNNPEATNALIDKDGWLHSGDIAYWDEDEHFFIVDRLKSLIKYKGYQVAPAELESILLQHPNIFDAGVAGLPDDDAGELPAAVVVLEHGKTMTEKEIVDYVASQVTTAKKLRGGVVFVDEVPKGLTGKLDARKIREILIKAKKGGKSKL

SMILES	initial light output compared to the no addition control (firefly luciferase [1])	RLUs on inclusion of DTT in the TCEP reaction mixture (firefly luciferase [2])	increase of initial RLU during the first cycle vs no DTT (firefly luciferase [3]; 10 mM DTT, 30 μM ATP)	increase of initial RLU during the first cycle vs no DTT (firefly luciferase [3]; 20 mM DTT, 238 μM ATP)	less light output after 11.5 minutes compared to the initial reading (firefly luciferase [3]; 20 mM DTT, 250 μM ATP) [%]	light output as % of the original signal (firefly luciferase [4]; fourth reading cycle) [%]	light output as % of the original signal (firefly luciferase [4]; last reading cycle) [%]	initially observed light output compared to the control reaction (no TCEP) (firefly luciferase [4]; TCEP 1.5, 3 and 6 mM)	originally observed signal retained at the last reading cycle (firefly luciferase [4]; TCEP 1.5-96 mM, 15th reading cycle, about 2 min per cycle, 181 pg enzyme, control lost >90%) [%]	RLU at the fifteenth reading cycle compared to control with DTT but without TCEP (firefly luciferase [5]; 1.5-24 mM TCEP + 5 mM DTT)	initial RLU compared to the control reaction (DTT without TCEP) (firefly luciferase [5]; 1.5 or 3 mM TCEP, 5 mM DTT)	retention of originally observed light output at last reading cycle compared to control (firefly luciferase [5]; all TCEP concentrations (1.5-96 mM), 5 mM DTT)	signal decrease from first reading cycle to 11 minutes 34 seconds later (firefly luciferase [3]; 30 μM ATP)	signal decrease from first reading cycle to 11 minutes 34 seconds later (firefly luciferase [3]; 250 μM ATP)	reduction of background (no added enzyme) compared to absence of TCEP (Renilla luciferase) [%]
O[C@H](CS)[C@H](O)CS (racemic) [DTT, dithiothreitol]	increased	elevated	about 8%	about 34%	8.5										
CC(C)(COP(=O)(O)OP(=O)(O)OC[C@H]1O[C@@H](n2cnc3c(N)ncnc32)[C@H](O)[C@@H]1OP(=O)(O)O)[C@@H](O)C(=O)NCCC(=O)NCCS [CoA, Coenzyme A]	increased														
O=C(O)CCP(CCC(=O)O)CCC(=O)O [TCEP, Tris(2-carboxyethyl) phosphine]						49	32	significantly higher	32 to 78	greater RLU	greater	greater retention	about 6%	about 6%	50
